Patent US9980942B2, “Rejuvenation of precursor cells” (Children's Hospital Medical Center, priority 2012, dated 2018)
“Also recorded” adds a separate entry of the source.

Tests used:
aged LT-HSCs = assay: Apoptosis and cell cycle staining (Hoechst/Pyronin Y, Annexin V); type: cell-based, mouse; details: 5 μM CASIN, 16 hrs
Description: Hoechst/PY staining was performed as previously described (Passegue et al., 2005). Briefly, 25,000 FACS-sorted LT-HSCs were incubated for 16 hrs in HBSS+10% FBS±CASIN (5 μM) in a water jacketed incubator at 37° C., 5% CO2, 3% O2. Then HOECHST 33342 (Invitrogen) was added directly to the medium at a final concentration of 20 μg/ml and samples were kept in incubation at 37° C., 5% CO2, 3% O2 for 45 min. PironinY (Sigma-Aldrich) was then added at a concentration of 1 μg/ml, and cells were incubated for additional 15 minutes. Cells were resuspended and incubated with anti-Annexin V (BD Pharmingen) according to manufacturer's instruction, washed and immediately analyzed on a LSRII (BD Biosciences).

HSC = assay: In vivo rejuvenation of HSC (Example 6); parameters: species or system mice
Description: To test the extent to which CASIN rejuvenates HSC in vivo, aged (20+ months old mice) are given CASIN i. v. or i.p. twice daily for 28 days and compared to young as well as aged solvent injected control groups. In 28 days most of the HSCs cycle at least once in vivo. Subsequently, PB is harvested every 14 days for a total of 2 months and differential blood counts (myeloid cells, lymphoid cells, red blood cells etc) are determined by hemavat counting and flow cytometry. At 3 months post CASIN treatment, when hematopoesis should be fully supported by stem cell activity of the CASIN exposed HSCs, animals are sacrificed and the number of early hematopoietic progenitor cells (Lineage^negc-Kit^+Sca-1^+ or LSK), long-term repopulating-HSC (LSKCD34^low/−Flk-2^−, LT-HSC), lymphoid-primed multi-potent progenitors (LMPPs, LSKCD34^+Flk-2^+11, 23, 24) are determined.
Separately, to investigate the effect of CASIN on stem cell fitness and lineage differentiation, standard competitive transplantation assays are performed using the syngeneic CD45.1/CD45.2 surface marker system to differentiate donor from recipient cells. […] Lineage chimerism (myeloid, B- and T-lymphoid) in peripheral blood (PB) is then determined up to 24-weeks post-transplant. […]

dorsal skin = assay: Wound healing of full-thickness excision wounds after CASIN injection; type: in vivo, mice
Description: To further assess the effects of in vivo administration of CASIN on aging parameters in the skin, aged mice are treated with CASIN as described in Example 5. The treated and untreated aged and young mice are then tested for and wound healing, as described below.
On day 28 after initial treatment with CASIN, each mouse is tested with 25 mm oblong full-thickness excision wounds (6 mice of each type per experiment), including the striated muscle layer (panniculus carnosus), on the dorsal skin of treated and untreated mice. One day after surgery a clear thin film of dried exudate covers the wounds in both untreated and treated mice. Build-up of dehydrated wound crusts or scabs begin at day 3 and become subsequently more extensive. In the aged, untreated mice, scabs are thicker and extravasation of blood, visible in the gaps within the scabs, is more frequent and extensive than that in the treated mice. In control young mice, and in treated aged mice, loss of wound scabs begins at day 17 and is complete in all mice by day 24 with wounds well-healed and epithelial covering restored. In contrast, the scabs in untreated aged mice start to come off partially around day 14, resulting in a scab with a gaping red wound field, which is evident even at 22 days. Healing of untreated aged mice wounds remains incomplete on day 24, and complete healing in all mice is observed between 25 and 31 days. These experiments indicate that transient treatment (days 1-5) with CASIN causes improved healing of skin wounds.

[1] = treated aged mice, 25 mm full-thickness excision wounds

In the case of OCCNC1CCCc2c1[nH]c1ccc(-c3ccccc3)cc21 (stereo not shown) [CASIN], the apoptosis (aged LT-HSCs) is reported as “did not alter; also recorded: doesn't alter”, the cell cycle status (aged LT-HSCs) is reported as “did not alter; also recorded: doesn't alter” and the “preferential differentiation towards the myeloid lineage” value (HSC; CASIN-treated aged HSCs) is reported as “ameliorated”. The “chimerism in competitive transplant assays” value (HSC; HSCs from CASIN-treated aged animals) was “greater than the overall chimerism supported by aged HSCs and similar to that observed for young HSCs”, the wound healing (dorsal skin; aged mice treated as in Example 5) was “respond similarly or nearly identical to the skin of young mice” and the “loss of wound scabs begins” value (dorsal skin; [1]) was 17 days. The “loss of wound scabs complete in all mice” value (dorsal skin; [1]) was ≤ 24 days.
